Measured values: PubChem BioAssay (NCI)
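GI50: concentration for 50% inhibition of growth. The concentration for full growth arrest is given as TGI.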

Tests used:
Test in all cases: growth of human tumour cells (NCI), 384-well format
[1] = system: SNB-19 CNS
[2] = system: SNB-75 CNS
[3] = system: SK-MEL-5 melanoma
[4] = system: SF-539 CNS
[5] = system: HL-60(TB) leukemia
[6] = system: HT29 colon
[7] = system: TK-10 renal
[8] = system: A549 NSCLC
[9] = system: LOX IMVI melanoma
[10] = system: M14 melanoma
[11] = system: U251 glioblastoma
[12] = system: MOLT-4 leukemia
[13] = system: SF-268 CNS
[14] = system: NCI-H522 lung
[15] = system: 786-0 renal
[16] = system: UACC-62 melanoma
[17] = system: SK-MEL-28 melanoma
[18] = system: ACHN renal
[19] = system: T-47D breast
[20] = system: MDA-MB-435 melanoma
[21] = system: A498 renal
[22] = system: NCI/ADR-RES ovarian
[23] = system: HOP-92 NSCLC
[24] = system: HCT-15 colon
[25] = system: NCI-H322M lung
[26] = system: OVCAR-5 ovarian
[27] = system: RPMI-8226 leukemia
[28] = system: COLO 205 colon
[29] = system: DU-145 prostate
[30] = system: NCI-H23 lung
[31] = system: MALME-3M melanoma
[32] = system: EKVX NSCLC
[33] = system: KM12 colon
[34] = system: OVCAR-4 ovarian
[35] = system: OVCAR-8 ovarian
[36] = system: SF-295 CNS
[37] = system: SW-620 colon
[38] = system: SK-OV-3 ovarian
[39] = system: UO-31 renal
[40] = system: HCC-2998 colon
[41] = system: MCF7 breast
[42] = system: K-562 leukemia
[43] = system: NCI-H460 NSCLC
[44] = system: IGROV1 ovarian
[45] = system: SN12C renal
[46] = system: UACC-257 melanoma
[47] = system: MDA-MB-231 breast
[48] = system: OVCAR-3 ovarian
[49] = system: CAKI-1 renal
[50] = system: HS 578T breast
[51] = system: NCI-H226 lung
[52] = system: CCRF-CEM leukemia
[53] = system: BT-549 breast
[54] = system: HOP-62 NSCLC
[55] = system: RXF 393 renal
[56] = system: PC-3 prostate
[57] = system: SR leukemia
[58] = system: MDA-MB-468 breast

Molecule Cn1cncc1[C@@](N)(c1ccc(Cl)cc1)c1ccc2c(c1)c(-c1cccc(Cl)c1)cc(=O)n2C has a GI50 [1] of 2330 nM, a TGI [1] of 13200 nM and a GI50 [2] of 1350 nM. For the same molecule, the TGI [2] was 4960 nM, the GI50 [3] was 313 nM and the TGI [3] was 2130 nM. The GI50 [4] was 1210 nM, the TGI [4] was 4330 nM and the GI50 [5] was less than 10 nM. For the same molecule, the TGI [5] was 1280 nM, the GI50 [6] was 1380 nM and the TGI [6] was 3620 nM. The GI50 [7] was 1750 nM, the TGI [7] was 6980 nM and the GI50 [8] was 1640 nM. For the same molecule, the TGI [8] was 11100 nM, the GI50 [9] was 1130 nM and the TGI [9] was 3310 nM. For the same molecule, the GI50 [10] was 22 nM, the TGI [10] was 2210 nM and the GI50 [11] was 1110 nM. The TGI [11] was 12600 nM, the GI50 [12] was less than 10 nM and the TGI [12] was 57.9 nM. For the same molecule, the GI50 [13] was 1780 nM, the TGI [13] was 11400 nM and the GI50 [14] was 1100 nM. It also gave a TGI [14] of 3850 nM, a GI50 [15] of 1160 nM and a TGI [15] of 8760 nM. For the same molecule, the GI50 [16] was 173 nM, the TGI [16] was 2750 nM and the GI50 [17] was 1370 nM. It also gave a TGI [17] of 6440 nM, a GI50 [18] of 1280 nM and a TGI [18] of 5310 nM. The GI50 [19] was 64.5 nM, the TGI [19] was 3670 nM and the GI50 [20] was 189 nM. The TGI [20] was 1510 nM, the GI50 [21] was 74.6 nM and the TGI [21] was 4040 nM. For the same molecule, the GI50 [22] was 1620 nM, the TGI [22] was 5510 nM and the GI50 [23] was 271 nM. The TGI [23] was 3620 nM, the GI50 [24] was 884 nM and the TGI [24] was 5180 nM. The GI50 [25] was 2060 nM, the TGI [25] was 15800 nM and the GI50 [26] was 2490 nM. It also gave a TGI [26] of 12200 nM, a GI50 [27] of 11.1 nM and a TGI [27] of 218 nM. For the same molecule, the GI50 [28] was 1230 nM, the TGI [28] was 3770 nM and the GI50 [29] was 2400 nM. It also gave a TGI [29] of 12100 nM, a GI50 [30] of 1510 nM and a TGI [30] of 4810 nM. It also gave a GI50 [31] of 141 nM, a TGI [31] of 2050 nM and a GI50 [32] of 1520 nM. For the same molecule, the TGI [32] was 6020 nM, the GI50 [33] was 186 nM and the TGI [33] was 2310 nM. It also gave a GI50 [34] of 1130 nM, a TGI [34] of 5260 nM and a GI50 [35] of 2410 nM. For the same molecule, the TGI [35] was 12300 nM, the GI50 [36] was 463 nM and the TGI [36] was 2780 nM. The GI50 [37] was 1360 nM, the TGI [37] was 4410 nM and the GI50 [38] was 1260 nM. The TGI [38] was 8170 nM, the GI50 [39] was 708 nM and the TGI [39] was 9770 nM. It also gave a GI50 [40] of 1270 nM, a TGI [40] of 3230 nM and a GI50 [41] of 1080 nM. The TGI [41] was 3660 nM, the GI50 [42] was 200 nM and the TGI [42] was 2050 nM. For the same molecule, the GI50 [43] was 391 nM, the TGI [43] was 6170 nM and the GI50 [44] was 1560 nM. The TGI [44] was 4990 nM, the GI50 [45] was 179 nM and the TGI [45] was 5390 nM. For the same molecule, the GI50 [46] was 1380 nM, the TGI [46] was 4880 nM and the GI50 [47] was 1520 nM. The TGI [47] was 8300 nM, the GI50 [48] was 1250 nM and the TGI [48] was 3770 nM. For the same molecule, the GI50 [49] was 2110 nM, the TGI [49] was 11900 nM and the GI50 [50] was 1460 nM. It also gave a TGI [50] of 4620 nM, a GI50 [51] of 1080 nM and a TGI [51] of 6960 nM. For the same molecule, the GI50 [52] was less than 10 nM, the TGI [52] was 1250 nM and the GI50 [53] was 1340 nM. The TGI [53] was 4320 nM, the GI50 [54] was 1900 nM and the TGI [54] was 8680 nM. The GI50 [55] was 472 nM, the TGI [55] was 10100 nM and the GI50 [56] was 1420 nM. For the same molecule, the TGI [56] was 6970 nM, the GI50 [57] was 12.9 nM and the TGI [57] was 194 nM. For the same molecule, the GI50 [58] was 23.5 nM and the TGI [58] was 1830 nM.
